The subject of test [1] is HCT116 FOP control reporter cell line. In words: HCT116 FOPFlash control reporter assay (FOP control vector, non-functional TCF elements). Type of test: cell-based. Particulars: HCT116 FOP control reporter cells, 36 hours incubation, luciferase expression. The source says: In a parallel approach, HCT116 cells were cotransfected with the FOP control vector and pcDNA3. The FOP vector is identical to the TOP construct, but it contains instead of functional TCF elements a randomized, non-functional sequence. For this transfection a stable transfected cell line was generated as well.

The test system of test [2] is constitutive active colorectal cancer cell (CRC) Wnt pathway. The test can be described thus: HCT116 TOPFlash cellular reporter assay (Super TopFlash luciferase), constitutive active Wnt pathway. Type of test: cell-based. The note with it: HCT116 TOP reporter cells, 36 hours incubation, luciferase expression. The method, then: In order to discover and characterize small molecules which inhibit the constitutive active colorectal cancer cell (CRC) Wnt pathway, a cellular reporter assay was employed. […] Stable transfectants were generated by cotransfection with pcDNA3 and selection of stable transfected cells with 1 mg/ml G418.
In general terms: A reporter such as luciferase makes a cellular process visible.

What is called IC50 is the concentration needed to halve the response being measured. Lower therefore signals greater potency in that assay.

Each structure is given as a SMILES string. A value given as a limit tells only on which side of the number the result lay.

Take `CC(C(=O)Nc1cc(NC(=O)c2ccc(-c3cccc(F)c3)nc2)ccc1OC(F)(F)F)N1CC2CCC(C1)O2` (stereo not shown) [Example 220, 6-(3-fluorophenyl)-N-[3-{[2-(8-oxa-3-azabicyclo[3.2.1]oct-3-yl)propanoyl]amino}-4-(trifluoromethoxy)phenyl] nicotinamide]: the IC50 in test [1] stood at 13000 nM; in test [2], 375 nM.

On to `CC(C(=O)Nc1cc(C(=O)Nc2ccc(-c3cc(F)cc(F)c3)nc2)ccc1OC(F)(F)F)N1CCOCC1` (stereo not shown) [Example 221, N-[6-(3,5-difluorophenyl)pyridin-3-yl]-3-{[2-(morpholin-4-yl)propanoyl]amino}-4-(trifluoromethoxy)benzamide], for which the IC50 turned out to be 12200 nM in test [1] and 235 nM in test [2].

As to `CC(C(=O)Nc1cc(C(=O)Nc2ccc(-c3cc(F)cc(F)c3)nc2)ccc1OC(F)(F)F)N1C[C@@H]2C[C@H]1CO2` (stereo partly drawn) [Example 223, N-[6-(3,5-difluorophenyl)pyridin-3-yl]-3-({2-[(1S,4S)-2-oxa-5-azabicyclo[2.2.1]hept-5-yl]propanoyl}amino)-4-(trifluoromethoxy)benzamide], the IC50 in test [1] (Homo sapiens, HCT-116, 36 h) came out at 17100 nM; in test [2] (Homo sapiens, HCT-116, 36 h), 238 nM.

Regarding `CC(C(=O)Nc1cc(NC(=O)c2ccc(-c3ccccc3F)nc2)ccc1OC(F)(F)F)N1CCOCC1` (stereo not shown) [Example 224, 6-(2-fluorophenyl)-N-[3-{[2-(morpholin-4-yl)propanoyl]amino}-4-(trifluoromethoxy)phenyl] nicotinamide], the values for the half-inhibitory concentration (IC50) in test [1] and in test [2] were not below 50000 nM and 382 nM, respectively.

With `CC(C(=O)Nc1cc(C(=O)Nc2ccc(-c3ccccc3F)nc2)ccc1C(F)(F)F)N1CCOCC1` (stereo not shown) [Example 225, N-[6-(2-fluorophenyl)pyridin-3-yl]-3-{[2-(morpholin-4-yl)propanoyl]amino}-4-(trifluoromethyl)benzamide], the figures for the IC50 in test [1] and in test [2] were 11200 nM and 237 nM, respectively.

Regarding `O=C(CN1CC2CCC(C1)O2)Nc1cc(C(=O)Nc2ccc(-c3ccccc3F)nc2)ccc1C(F)(F)F` [Example 226, N-[6-(2-fluorophenyl)pyridin-3-yl]-3-[(8-oxa-3-azabicyclo[3.2.1]oct-3-ylacetyl)amino]-4-(trifluoromethyl)benzamide], the half-inhibitory concentration (IC50) in test [1] (Homo sapiens, HCT-116, 36 h) turned out to be 6500 nM; in test [2] (Homo sapiens, HCT-116, 36 h) it was 245 nM.

Turning to `O=C(CN1CCN(C2CC2)CC1)Nc1cc(C(=O)Nc2ccc(-c3ccccc3F)nc2)ccc1C(F)(F)F` [Example 227, 3-{[(4-cyclopropylpiperazin-1-yl)acetyl]amino}-N-[6-(2-fluorophenyl)pyridin-3-yl]-4-(trifluoromethyl)benzamide], the half-maximal inhibitory concentration (IC50) worked out at 10200 nM in test [1] (Homo sapiens, HCT-116, 36 h) and 245 nM in test [2] (Homo sapiens, HCT-116, 36 h).

For the compound `CN(C(=O)CN1CCOCC1)c1cc(C(=O)Nc2ccc(-c3ccccc3)nc2)ccc1OC(F)(F)F` [Example 228, 3-[methyl(morpholin-4-ylacetyl)amino]-N-(6-phenylpyridin-3-yl)-4-(trifluoromethoxy)benzamide], the half-inhibitory concentration (IC50) came to 29000 nM in test [1] (Homo sapiens, HCT-116, 36 h) and 2870 nM in test [2] (Homo sapiens, HCT-116, 36 h).

Take `COc1ccc(NC(=O)c2ccc(-c3ccc(F)cc3)nc2)cc1NC(=O)CN1CCOCC1` [Example 229, 6-(4-fluorophenyl)-N-{4-methoxy-3-[(morpholin-4-ylacetyl)amino]phenyl} nicotinamide]: the IC50 is not below 50000 nM in test [1] (Homo sapiens, HCT-116, 36 h) and 2300 nM in test [2] (Homo sapiens, HCT-116, 36 h).

Regarding `CC(C(=O)Nc1cc(C(=O)Nc2nnc(-c3ccccc3)s2)ccc1CS(C)(=O)=O)N1CCN(C)CC1` (stereo not shown) [Example 231, 3-{[2-(4-methylpiperazin-1-yl)propanoyl]amino}-4-[(methylsulfonyl)methyl]-N-(5-phenyl-1,3,4-thiadiazol-2-yl)benzamide], the IC50 in test [1] (Homo sapiens, HCT-116, 36 h) is not below 50000 nM; in test [2] it was 1020 nM.

As for `CC(C(=O)Nc1cc(C(=O)Nc2nnc(-c3ccccc3)s2)ccc1CS(C)(=O)=O)N1CCN(C)CC1` (stereo not shown) [Example 232, 3-{[2-(4-methylpiperazin-1-yl)propanoyl]amino}-4-[(methylsulfonyl)methyl]-N-(5-phenyl-1,3,4-thiadiazol-2-yl)benzamide], the 50% inhibitory concentration (IC50) in test [1] is not below 50000 nM; in test [2], 2200 nM.

For `O=C(CN1CCN(CC(F)(F)F)CC1)Nc1cc(C(=O)Nc2ccc(-c3ccccc3F)nc2)ccc1OC(F)(F)F` [Example 233, N-[6-(2-fluorophenyl)pyridin-3-yl]-3-({[4-(2,2,2-trifluoroethyl)piperazin-1-yl]acetyl}amino)-4-(trifluoromethoxy)benzamide], the IC50 is not below 50000 nM in test [1] (Homo sapiens, HCT-116, 36 h) and 985 nM in test [2] (Homo sapiens, HCT-116, 36 h).

`CC(C(=O)Nc1cc(C(=O)Nc2nnc(-c3ccccc3)s2)ccc1OC(F)(F)F)N1CCN(C2CC2)CC1` (stereo not shown) [Example 234, 3-{[2-(4-cyclopropylpiperazin-1-yl)propanoyl]amino}-N-(5-phenyl-1,3,4-thiadiazol-2-yl)-4-(trifluoromethoxy)benzamide]: the half-inhibitory concentration (IC50) in test [1] (Homo sapiens, HCT-116, 36 h) was 40500 nM; in test [2] (Homo sapiens, HCT-116, 36 h) it was 635 nM.

With `CS(=O)(=O)Cc1ccc(C(=O)Nc2nnc(-c3ccccc3)s2)cc1NC(=O)CN1CCOCC1` [Example 235, 4-[(methylsulfonyl)methyl]-3-[(morpholin-4-ylacetyl)amino]-N-(5-phenyl-1,3,4-thiadiazol-2-yl)benzamide], the IC50 in test [1] (Homo sapiens, HCT-116, 36 h) is not below 50000 nM; in test [2] (Homo sapiens, HCT-116, 36 h) it was 1310 nM.

As for `CN1CCN(C2(C(=O)Nc3cc(C(=O)Nc4ccc(-c5ccccc5F)nc4)ccc3OC(F)(F)F)CC2)CC1` [Example 236, N-[6-(2-fluorophenyl)pyridin-3-yl]-3-({[1-(4-methylpiperazin-1-yl)cyclopropyl]carbonyl}amino)-4-(trifluoromethoxy)benzamide], the half-inhibitory concentration (IC50) in test [1] (Homo sapiens, HCT-116, 36 h) was not below 50000 nM; in test [2] (Homo sapiens, HCT-116, 36 h), 276 nM.

On to `O=C(CN1CCOCC1)Nc1cc(C(=O)Nc2ccc(-c3ccccc3F)nc2)ccc1OC(F)F` [Example 237, 4-(difluoromethoxy)-N-[6-(2-fluorophenyl)pyridin-3-yl]-3-[(morpholin-4-ylacetyl)amino]benzamide], for which the IC50 in test [1] (Homo sapiens, HCT-116, 36 h) worked out at 13000 nM; in test [2] (Homo sapiens, HCT-116, 36 h), 139 nM.

`O=C(Cc1ccccn1)Nc1cc(C(=O)Nc2ccc(-c3ccccc3F)nc2)ccc1OC1CC1` [Example 238, 4-(cyclopropyloxy)-N-[6-(2-fluorophenyl)pyridin-3-yl]-3-[(pyridin-2-ylacetyl)amino]benzamide]: the 50% inhibitory concentration (IC50) in test [1] (Homo sapiens, HCT-116, 36 h) was not below 50000 nM; in test [2] (Homo sapiens, HCT-116, 36 h) it was 1750 nM.

For `O=C(CN1CCOCC1)Nc1cc(C(=O)Nc2nnc(-c3ccccc3)s2)ccc1OC(F)F` [Example 239, 4-(difluoromethoxy)-3-[(morpholin-4-ylacetyl)amino]-N-(5-phenyl-1,3,4-thiadiazol-2-yl)benzamide], the IC50 is not below 50000 nM in test [1] (Homo sapiens, HCT-116, 36 h) and 2890 nM in test [2] (Homo sapiens, HCT-116, 36 h).

With `O=C(CN1CC2CCC(C1)O2)Nc1cc(C(=O)Nc2nnc(-c3ccccc3)s2)ccc1OC(F)(F)F` [Example 240, 3-[(8-oxa-3-azabicyclo[3.2.1]oct-3-ylacetyl)amino]-N-(5-phenyl-1,3,4-thiadiazol-2-yl)-4-(trifluoromethoxy)benzamide], the concentration for half-maximal inhibition (IC50) was not below 50000 nM in test [1] (Homo sapiens, HCT-116, 36 h) and 1180 nM in test [2] (Homo sapiens, HCT-116, 36 h).

As to `CC(C(=O)Nc1cc(C(=O)Nc2ccc(-c3cc(F)cc(F)c3)nc2)ccc1OC(F)(F)F)N1CCOCC1` (stereo not shown) [Example 245, N-[6-(3,5-difluorophenyl)pyridin-3-yl]-3-{[2-(morpholin-4-yl)propanoyl]amino}-4-(trifluoromethoxy)benzamide], the concentration for half-maximal inhibition (IC50) in test [1] was 5200 nM; in test [2], 7.85 nM.
